In paper PMC10981727, “Design, synthesis and bioactivity study on oxygen-heterocyclic-based pyran analogues as effective P-glycoprotein-mediated multidrug resistance in MCF-7/ADR cell” (Scientific Reports, 2024):
Like-named read-outs stand apart in the source and are kept apart here.

Legend:
HeLa [1] = assay: MTT viability assay, HeLa; format: cell-based; details: 24 h incubation, mean ± standard error
Protocol: (§1) Using concentrations ranging from 0 to 100 μM against PC-3, SKOV-3, and HeLa cancerogenic cell lines, target compounds 4a–l were assessed for their anticancer activities[53] and compared with the commercially available Vinblastine and Doxorubicin. […] The compounds with the greatest cytotoxic activity against the cancerous cell lines PC-3, SKOV-3, and HeLa were 4a–c, 4g, and 4h. […] We selected the cytotoxic active compounds 4a–c, 4g, and 4h to be evaluated against MCF-7/ADR cancerogenic and HFL-1 and WI-38 non-cancerogenic cell lines (Figs. 7, 8 and Table 1).
(§2) The tumor cell lines (PC-3, SKOV-3, and HeLa), resistant cell strains (MCF-7/ADR) and the normal cell lines, (HFL-1, WI-38) were obtained from the American Type Culture Collection (ATCC, Rockville, MD, USA).
(§3) The tumor cell lines were suspended in medium at concentration 5 × 10^4 cells well^−1 in Corning® 96-well tissue culture plates and then incubated for 24 h. The tested compounds with concentrations ranging from 0 to 100 μM were then added into 96-well plates (six replicates) to achieve six different concentrations for each compound. Six vehicle controls with media or 0.5% DMSO were run for each 96 well plate as a control. After incubating for 24 h, the numbers of viable cells were determined by the MTT test[53]. Briefly, the media was removed from the 96 well plates and replaced with 100 μl of fresh culture RPMI 1640 medium without phenol red then 10 μl of the 12 mM MTT stock solution (5 mg of MTT in 1 ml of PBS) to each well including the untreated controls. The 96-well plates were then incubated at 37 °C and 5% CO2 for 4 h. An 85-μl aliquot of the media was removed from the wells, and 50 μl of DMSO was added to each well and mixed thoroughly with the pipette and incubated at 37 °C for 10 min. Then, the optical density was measured at 590 nm with the microplate reader (Sunrise, TECAN, Inc, USA) to determine the number of viable cells and the percentage of viability was calculated as […] where ODt is the mean optical density of wells treated with the tested sample and ODc is the mean optical density of untreated cells. The relation between surviving cells and drug concentration is plotted to get the survival curve of each tumor cell line after treatment with the specified compound. The 50% inhibitory concentration (IC50), the concentration required to cause toxic effects in 50% of intact cells, was estimated from graphic plots of the dose response curve for each concentration.

SKOV-3 = assay: MTT viability assay, SKOV-3; format: cell-based; details: for IC50: MTT, 24 h incubation, mean ± standard error; for times more potency than Doxorubicin, SKOV-3 / times more potency than Vinblastine, SKOV-3: ratio of IC50 values
Protocol: as §1, §2, §3

PC-3 [2] = assay: MTT viability assay, PC-3; format: cell-based; details: for IC50: MTT, 24 h incubation, mean ± standard error
Protocol: as §1, §2, §3

MCF-7/ADR = assay: MTT viability assay, resistant MCF-7/ADR; format: cell-based; details: for IC50: Homo sapiens, NCI/ADR-RES, MTT, 24 h exposure, mean ± standard error; for activity against MCF-7/ADR cell (in words): with regard to Doxorubicin
Protocol: as §1, §2, §3

[3] = test system: human diploid fibroblasts (WI-38); assay: MTT viability assay, normal WI-38; format: cell-based; details: normal cell line, 24 h, mean ± standard error
Protocol: as §1, §2, §3

human fetal lung (HFL-1) = assay: MTT viability assay, normal HFL-1; format: cell-based; details: HFL1, normal cell line, 24 h, mean ± standard error
Protocol: as §1, §2, §3

MCF-7 = test system: MCF-7; set-up: method as in PMID 31586716; details: Fig. 5, 9-Br first generation derivatives; cited from earlier work
HepG-2 = test system: HepG-2; set-up: method as in PMID 31586716; details: Fig. 5, 9-Br first generation derivatives; cited from earlier work
HCT-116 = test system: HCT-116; set-up: method as in PMID 31586716; details: Fig. 5, 9-Br first generation derivatives; cited from earlier work
PC-3 [4] = test system: PC-3; set-up: method as in PMID 34670333; details: Fig. 5, 9-OMe second generation derivatives; cited from earlier work
A549 = test system: A549; set-up: method as in PMID 34670333; details: Fig. 5, 9-OMe second generation derivatives; cited from earlier work
HeLa [5] = test system: HeLa; set-up: method as in PMID 34670333; details: Fig. 5, 9-OMe second generation derivatives; cited from earlier work
MDA-MB-231 = test system: MDA-MB-231; set-up: method as in PMID 34670333; details: Fig. 5, 9-OMe second generation derivatives; cited from earlier work
MIA PaCa-2 = test system: MIA PaCa-2; set-up: method as in PMID 34670333; details: Fig. 5, 9-OMe second generation derivatives; cited from earlier work
RPMI 7951 = test system: RPMI 7951; set-up: method as in PMID 34670333; details: Fig. 5, 9-OMe second generation derivatives; cited from earlier work

## N#CC1=C(N)Oc2ccc3ccc(O)cc3c2C1c1ccc(Cl)cc1 (stereo not drawn) [4d, 3-Amino-1-(4-chlorophenyl)-9-hydroxy-1H-benzo[f]chromene-2-carbonitrile]
HeLa [1]; Homo sapiens, HeLa
  IC50: 21.9 ± 1.1 µM
other
  melting point: 285 to 286 °C
SKOV-3; Homo sapiens, SK-OV-3
  IC50: 35.6 ± 0.4 µM
PC-3 [2]; Homo sapiens, PC-3
  IC50: 8.8 ± 0.7 µM

## N#CC1=C(N)Oc2ccc3ccc(O)cc3c2C1c1ccc(Br)cc1 (stereo not drawn) [4e, 3-Amino-1-(4-bromophenyl)-9-hydroxy-1H-benzo[f]chromene-2-carbonitrile]
HeLa [1]; Homo sapiens, HeLa
  IC50: 7.9 ± 1.6 µM
other
  melting point: 285 to 286 °C
SKOV-3; Homo sapiens, SK-OV-3
  IC50: 4.8 ± 1.1 µM
PC-3 [2]; Homo sapiens, PC-3
  IC50: 8.8 ± 1.2 µM

## Cc1ccc(C2C(C#N)=C(N)Oc3ccc4ccc(O)cc4c32)cc1 (stereo not drawn) [4f, 3-Amino-1-(4-methylphenyl)-9-hydroxy-1H-benzo[f]chromene-2-carbonitrile]
HeLa [1]; Homo sapiens, HeLa
  IC50: 33.7 ± 1.3 µM
other
  melting point: 258 to 259 °C
SKOV-3; Homo sapiens, SK-OV-3
  IC50: 35.2 ± 1.3 µM
PC-3 [2]; Homo sapiens, PC-3
  IC50: 37.2 ± 1.3 µM

## COc1ccc(C2C(C#N)=C(N)Oc3ccc4ccc(O)cc4c32)cc1 (stereo not drawn) [4g, 3-Amino-1-(4-methoxyphenyl)-9-hydroxy-1H-benzo[f]chromene-2-carbonitrile]
MCF-7/ADR
  IC50: 30.5 ± 0.7 µM
  activity against MCF-7/ADR cell (in words): inactive
HeLa [1]; Homo sapiens, HeLa
  IC50: 0.9 ± 1.5 µM
[3]
  IC50: 84.5 ± 1.1 µM
other
  melting point: 229 to 230 °C
Human fetal lung (HFL-1)
  IC50: 77.5 ± 0.1 µM
SKOV-3; Homo sapiens, SK-OV-3
  IC50: 0.7 ± 0.8 µM
SKOV-3
  times more potency than Doxorubicin, SKOV-3: 1.6 times
  times more potency than Vinblastine, SKOV-3: 4.6 times
PC-3 [2]; Homo sapiens, PC-3
  IC50: 0.9 ± 0.4 µM
PC-3 [2]; ratio of IC50 values, PC-3
  times more potent than Doxorubicin, PC-3: 1.4 times
  times more potent than Vinblastine, PC-3: 8.3 times

## N#CC1=C(N)Oc2ccc3ccc(O)cc3c2C1c1ccc([N+](=O)[O-])cc1 (stereo not drawn) [4h, 3-Amino-1-(4-nitrophenyl)-9-hydroxy-1H-benzo[f]chromene-2-carbonitrile]
MCF-7/ADR
  IC50: 19.2 ± 0.7 µM
  activity against MCF-7/ADR cell (in words): inactive
HeLa [1]; Homo sapiens, HeLa
  IC50: 0.9 ± 0.4 µM
[3]
  IC50: 79.4 ± 0.1 µM
other
  melting point: 262 to 263 °C
Human fetal lung (HFL-1)
  IC50: 84.9 ± 0.1 µM
SKOV-3; Homo sapiens, SK-OV-3
  IC50: 0.6 ± 0.1 µM
SKOV-3
  times more potency than Doxorubicin, SKOV-3: 1.8 times
  times more potency than Vinblastine, SKOV-3: 5.3 times
PC-3 [2]; Homo sapiens, PC-3
  IC50: 0.7 ± 0.4 µM
PC-3 [2]; ratio of IC50 values, PC-3
  times more potent than Vinblastine, PC-3: 10.7 times

## N#CC1=C(N)Oc2ccc3ccc(O)cc3c2C1c1ccc(OCc2ccccc2)cc1 (stereo not drawn) [4i, 3-Amino-1-(4-(benzyloxy)phenyl)-9-hydroxy-1H-benzo[f]chromene-2-carbonitrile]
HeLa [1]; Homo sapiens, HeLa
  IC50: 3.3 ± 0.3 µM
other
  melting point: 269 to 279 °C
SKOV-3; Homo sapiens, SK-OV-3
  IC50: 3.5 ± 0.3 µM
PC-3 [2]; Homo sapiens, PC-3
  IC50: 3.2 ± 1 µM

## N#CC1=C(N)Oc2ccc3ccc(O)cc3c2C1c1ccc2c(c1)OCO2 (stereo not drawn) [4j, 3-Amino-1-(benzo[d][1,3]dioxol-5-yl)-9-hydroxy-1H-benzo[f]chromene-2-carbonitrile]
HeLa [1]; Homo sapiens, HeLa
  IC50: 2.5 ± 0.2 µM
other
  melting point: 260 to 261 °C
SKOV-3; Homo sapiens, SK-OV-3
  IC50: 3.9 ± 0.6 µM
PC-3 [2]; Homo sapiens, PC-3
  IC50: 6.6 ± 0.5 µM

## N#CC1=C(N)Oc2ccc3ccc(O)cc3c2C1c1cccnc1 (stereo not drawn) [4k, 3-Amino-9-hydroxy-1-(pyridin-3-yl)-1H-benzo[f]chromene-2-carbonitrile]
HeLa [1]; Homo sapiens, HeLa
  IC50: 76.4 ± 0.7 µM
other
  melting point: 296 to 297 °C
SKOV-3; Homo sapiens, SK-OV-3
  IC50: 6.3 ± 0.8 µM
PC-3 [2]; Homo sapiens, PC-3
  IC50: 10.6 ± 0.5 µM

## N#CC1=C(N)Oc2ccc3ccc(O)cc3c2C1c1ccncc1 (stereo not drawn) [4l, 3-Amino-9-hydroxy-1-(pyridin-4-yl)-1H-benzo[f]chromene-2-carbonitrile]
HeLa [1]; Homo sapiens, HeLa
  IC50: 11.5 ± 0.9 µM
other
  melting point: 294 to 295 °C
SKOV-3; Homo sapiens, SK-OV-3
  IC50: 5.1 ± 0.8 µM
PC-3 [2]; Homo sapiens, PC-3
  IC50: 17.7 ± 0.7 µM

## CC[C@]1(O)C[C@@H]2CN(CCc3c([nH]c4ccccc34)[C@@](C(=O)OC)(c3cc4c(cc3OC)N(C)[C@H]3[C@@](O)(C(=O)OC)[C@H](OC(C)=O)[C@]5(CC)C=CCN6CC[C@]43[C@@H]65)C2)C1 [Vinblastine, reference compound]
HeLa [1]
  IC50: 5.7 ± 1.1 µM
SKOV-3
  IC50: 3.2 ± 1.2 µM
PC-3 [2]
  IC50: 7.5 ± 1.3 µM

## N#CC1=C(N)Oc2ccc3ccc(Br)cc3c2C1c1cccc(Cl)c1 (stereo not drawn) [compound 1]
MCF-7
  IC50: 45.8 µM
HepG-2
  IC50: 0.77 µM
HCT-116
  IC50: 1.36 µM

## N#CC1=C(N)Oc2ccc3ccc(Br)cc3c2C1c1ccc(Cl)cc1 (stereo not drawn) [compound 2]
MCF-7
  IC50: 9.63 µM
HepG-2
  IC50: 1.67 µM
HCT-116
  IC50: 0.8 µM

## N#CC1=C(N)Oc2ccc3ccc(Br)cc3c2C1c1cccc(Cl)c1Cl (stereo not drawn) [compound 3]
MCF-7
  IC50: 0.49 µM
HepG-2
  IC50: 7.59 µM
HCT-116
  IC50: 0.64 µM

## N#CC1=C(N)Oc2ccc3ccc(Br)cc3c2C1c1ccc(Cl)c(Cl)c1 (stereo not drawn) [compound 4]
MCF-7
  IC50: 7.61 µM
HepG-2
  IC50: 0.47 µM
HCT-116
  IC50: 25 µM

## COc1c(Br)cc(Br)cc1C1C(C#N)=C(N)Oc2ccc3ccc(Br)cc3c21 (stereo not drawn) [compound 5]
MCF-7
  IC50: 3.67 µM
HepG-2
  IC50: 0.71 µM
HCT-116
  IC50: 0.58 µM

## COc1ccc2ccc3c(c2c1)C(c1ccc(Br)cc1)C(C#N)=C(N)O3 (stereo not drawn) [compound 6]
PC-3 [4]
  IC50: 13.6 µM
A549
  IC50: 12.7 µM
HeLa [5]
  IC50: 11.6 µM
MDA-MB-231
  IC50: 7.8 µM
MIA PaCa-2
  IC50: 6.8 µM
RPMI 7951
  IC50: 5.9 µM

## COc1ccc2ccc3c(c2c1)C(c1ccc(I)cc1)C(C#N)=C(N)O3 (stereo not drawn) [compound 7]
PC-3 [4]
  IC50: 12.9 µM
A549
  IC50: 13.1 µM
HeLa [5]
  IC50: 12.1 µM
MDA-MB-231
  IC50: 8.9 µM
MIA PaCa-2
  IC50: 6.2 µM
RPMI 7951
  IC50: 6.5 µM

## COc1ccc2ccc3c(c2c1)C(c1ccc(Cl)cc1Cl)C(C#N)=C(N)O3 (stereo not drawn) [compound 8]
PC-3 [4]
  IC50: 8.7 µM
A549
  IC50: 6.8 µM
HeLa [5]
  IC50: 7.6 µM
MDA-MB-231
  IC50: 7.1 µM
MIA PaCa-2
  IC50: 6 µM
RPMI 7951
  IC50: 5.3 µM

## COc1ccc2ccc3c(c2c1)C(c1cc(Cl)ccc1Cl)C(C#N)=C(N)O3 (stereo not drawn) [compound 9]
PC-3 [4]
  IC50: 11.5 µM
A549
  IC50: 8.5 µM
HeLa [5]
  IC50: 13.2 µM
MDA-MB-231
  IC50: 8.1 µM
MIA PaCa-2
  IC50: 6.8 µM
RPMI 7951
  IC50: 5.7 µM

## COc1ccc2ccc3c(c2c1)C(c1ccc(Cl)c(Cl)c1)C(C#N)=C(N)O3 (stereo not drawn) [compound 10]
PC-3 [4]
  IC50: 14.6 µM
A549
  IC50: 13.6 µM
HeLa [5]
  IC50: 12.9 µM
MDA-MB-231
  IC50: 8.4 µM
MIA PaCa-2
  IC50: 6.2 µM
RPMI 7951
  IC50: 5.1 µM
